Where a name gives a salt, the structure may show the parent alone. Read-outs that look alike come from different tables or passages of the source.
Experiments:
[1] = biological target: ncNOS (Homo sapiens, UniProt P29475); assay: biochemical
[2] = biological target: iNOS (Homo sapiens, UniProt P35228); assay: NOS activity assay, iNOS (L-[3H]citrulline formation); format: biochemical
Protocol: (§1) Assay Protocol for NOS activity
(§2) NOS activity is measured as the formation of L-[2,3,4,5-^3 H]Citrullinefrom L-[2,3,4,5-^3 H]Arginine. The incubation buffer (100 μL) contained; 100 mM TES, pH 7.5, 5 μM FAD, 5 μM FMN, 10 μM BH4, 0.5 mM NADPH, 0.5 mM DTT, 0.5 mg/mL BSA, 2 mM CaCl2, 10 μg/mL calmodulin (bovine), 1 μM L-Arg, 0.2 μCi L-[2,3,4,5-^3 H]Arg, and the inhibitor in aqueous DMSO (max. 5%). The reaction is initiated by addition of enzyme. Incubations are performed at room temperature for 30 minutes and stopped by the addition of an equal volume of quenching buffer consisting of 200 mM sodium citrate, pH 2.2, 0.02% sodium azide. Reaction products are separated by passing through a cation exchange resin and quantitated as cpm by scintillation counting.

[3] = biological target: ecNOS (Homo sapiens, UniProt P29474); assay: NOS activity assay, ecNOS (L-[3H]citrulline formation); format: biochemical
Protocol: as §1, §2

Chain of ncNOS (P29475 whole entry): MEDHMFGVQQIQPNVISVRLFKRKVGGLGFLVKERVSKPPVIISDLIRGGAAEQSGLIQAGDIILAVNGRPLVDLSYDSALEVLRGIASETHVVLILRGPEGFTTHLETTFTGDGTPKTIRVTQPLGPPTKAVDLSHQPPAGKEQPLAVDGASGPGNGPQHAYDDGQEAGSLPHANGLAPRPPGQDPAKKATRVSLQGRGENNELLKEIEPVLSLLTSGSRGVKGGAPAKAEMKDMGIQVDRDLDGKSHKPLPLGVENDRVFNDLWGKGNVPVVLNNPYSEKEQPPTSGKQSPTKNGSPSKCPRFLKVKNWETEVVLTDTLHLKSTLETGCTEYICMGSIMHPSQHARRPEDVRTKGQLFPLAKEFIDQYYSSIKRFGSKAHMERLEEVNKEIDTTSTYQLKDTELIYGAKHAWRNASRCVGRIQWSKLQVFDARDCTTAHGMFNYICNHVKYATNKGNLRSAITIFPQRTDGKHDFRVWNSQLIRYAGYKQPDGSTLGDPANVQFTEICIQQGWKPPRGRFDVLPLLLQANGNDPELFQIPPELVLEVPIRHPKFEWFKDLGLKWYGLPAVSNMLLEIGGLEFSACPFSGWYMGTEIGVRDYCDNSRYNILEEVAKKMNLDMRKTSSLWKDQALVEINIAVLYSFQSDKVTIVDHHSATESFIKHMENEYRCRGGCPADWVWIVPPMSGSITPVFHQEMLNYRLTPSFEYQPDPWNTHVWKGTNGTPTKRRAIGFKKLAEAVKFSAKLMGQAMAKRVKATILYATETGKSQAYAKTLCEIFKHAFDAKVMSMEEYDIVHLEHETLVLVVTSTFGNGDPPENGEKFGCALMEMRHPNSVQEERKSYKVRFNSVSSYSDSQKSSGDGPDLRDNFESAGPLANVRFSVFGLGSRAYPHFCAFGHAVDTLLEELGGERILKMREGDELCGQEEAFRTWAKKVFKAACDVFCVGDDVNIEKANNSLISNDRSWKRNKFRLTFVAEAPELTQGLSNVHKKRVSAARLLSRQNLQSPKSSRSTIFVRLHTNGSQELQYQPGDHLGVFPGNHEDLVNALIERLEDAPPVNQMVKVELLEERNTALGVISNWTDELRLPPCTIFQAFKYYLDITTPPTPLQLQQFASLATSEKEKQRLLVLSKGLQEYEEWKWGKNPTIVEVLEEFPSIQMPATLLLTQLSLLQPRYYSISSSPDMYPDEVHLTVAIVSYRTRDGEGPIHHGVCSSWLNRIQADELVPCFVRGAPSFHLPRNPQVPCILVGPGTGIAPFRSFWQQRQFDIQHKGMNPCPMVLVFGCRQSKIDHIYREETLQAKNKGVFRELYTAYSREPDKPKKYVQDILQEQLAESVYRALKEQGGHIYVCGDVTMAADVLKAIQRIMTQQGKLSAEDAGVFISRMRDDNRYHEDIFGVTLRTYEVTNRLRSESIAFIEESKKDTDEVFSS

SMILES | IC50 ([1]; Table 4, read-out: IC50 ncNOS) [µM] | IC50 ([2]; Table 4, read-out: IC50 iNOS) [µM] | IC50 ([3]; Table 4, read-out: IC50 ecNOS) [µM] | IC50 ([1]; Table 5, read-out: IC50 ncNOS) [µM] | further results
CCC1CCC(=N)N1 (centres unmarked) [Table 4: H, H, C2H5, H, H] | ≤ 10 | ≤ 50 | ≤ 10 | – | –
CC1CCC(N)=NC1 (centres unmarked) [Table 5: CH2, H, H, CH3, H, H, H, 2-Imino-5-methylpiperidine hydrochloride] | – | – | – | – | IC50 [2]: ≤ 1 µM; IC50 [3]: ≤ 10 µM
NC1=NCCC1 [Table 4: H, H, H, H, H, 1-Aza-2-imino-cyclopentane hydrochloride] | – | ≤ 10 | – | – | IC50 [1]: ≤ 10 µM; IC50 [3]: ≤ 10 µM
N=C1CC[C@@H]2CCCC[C@H]2N1 (relative stereo) [Table 5: CH2, H, H, trans-(CH2)4, H, H, trans-Decahydro-2-iminoquinoline hydrochloride] | – | – | – | ≤ 1 | IC50 ([2]; Table 5, read-out: IC50 iNOS): ≤ 1 µM; IC50 ([3]; Table 5, read-out: IC50 ecNOS): ≤ 10 µM
N=C1CSCCN1 [Table 5: S, H, --, H, H, H, H, 3-Iminothiomorpholine hydrochloride] | – | – | – | ≤ 1 | IC50 ([2]; Table 5, read-out: IC50 iNOS): ≤ 1 µM; IC50 ([3]; Table 5, read-out: IC50 ecNOS): ≤ 10 µM
C[C@H]1CCNC(=N)C1 [Table 5: CH, H, (S)CH3, H, H, H, H, 4(S)-Methyl-2-iminopiperidine hydrochloride] | – | – | – | – | IC50 [2]: ≤ 1 µM
CC1CCN=C1N (centres unmarked) [Table 4: CH3, H, H, H, H, 2-Imino-3-methylpyrrolidine hydrochloride] | – | ≤ 10 | ≤ 10 | – | IC50 [1]: ≤ 1 µM
N=C1CNC2CCCCC2N1 (centres unmarked) [Table 5: N, H, H, (CH2)4, H, H] | – | – | – | ≤ 50 | IC50 [2]: ≤ 10 µM; IC50 [3]: > 50 µM
N=C1CC[C@H](CO)N1 [Table 4: H, H, (R)-CH2OH, H, H, 2-Imino-5-(R)-hydroxymethylpyrrolidine hydrochloride] | ≤ 50 | ≤ 50 | ≤ 50 | – | –
CC(=O)OC[C@@H]1CCC(=N)N1 [Table 4: H, H, (S)-CH2OAc, H, H, 2-Imino-5-(S)-acetyloxymethylpyrrolidine hydrochloride] | ≤ 10 | ≤ 50 | > 50 | – | –
CCCOC1CCC(=N)NC1 (centres unmarked) [Table 5: CH2, H, H, O-n-C3H7, H, H, H, 2-Imino-5-n-propyloxy-piperidine, acetic acid salt] | – | – | – | ≤ 10 | IC50 ([2]; Table 5, read-out: IC50 iNOS): ≤ 1 µM; IC50 ([3]; Table 5, read-out: IC50 ecNOS): ≤ 10 µM
N=C1CC[C@@H]2CCCN12 [Table 4: H, H, (CH2)3, H, 5-(S)-2-Imino-1-aza-bicyclo(3.3.0)octane] | ≤ 10 | > 50 | ≤ 50 | – | –
CCC1N=C(N)CC1C (centres unmarked) [Table 4: H, CH3, C2H5, H, H, 2-Imino-5-ethyl-4-methylpyrrolidine hydrochloride] | – | ≤ 1 | ≤ 1 | – | IC50 [1]: ≤ 1 µM
N=C1CCC(C(F)(F)F)CN1 (centres unmarked) [Table 5: CH2, H, H, CF3, H, H, H, 2-Imino-5-trifluoro-piperidine] | – | – | – | > 50 | IC50 ([2]; Table 5, read-out: IC50 iNOS): ≤ 10 µM; IC50 ([3]; Table 5, read-out: IC50 ecNOS): > 50 µM
N=C1CC[C@@H](CO)N1 [Table 4: H, H, (S)-CH2OH, H, H, 2-Imino-5-(S)-hydroxymethylpyrrolidine hydrochloride] | ≤ 50 | ≤ 10 | > 50 | – | –
CC(C)(C)OC(=O)N1CCNC(=N)C1 [Table 5: N, H, CO2-t-C4H9, H, H, H, H, 4-t-Butoxycarbonyl-2-iminopiperazine hydrochloride] | – | – | – | > 50 | IC50 ([2]; Table 5, read-out: IC50 iNOS): ≤ 50 µM; IC50 ([3]; Table 5, read-out: IC50 ecNOS): > 50 µM
CC1CCC(N)=N1 (centres unmarked) [Table 4: H, H, CH3, H, H, 2-Imino-5-methylpyrrolidine hydrochloride] | – | – | ≤ 10 | – | IC50 [1]: ≤ 10 µM; IC50 [2]: ≤ 10 µM
C[C@@H]1CCNC(=N)C1 [Table 5: CH, H, (R)CH3, H, H, H, H, 4(R)-Methyl-2-iminopiperidine hydrochloride] | – | – | – | – | IC50 [2]: ≤ 1 µM
N=C1CN[C@@H]2CCCC[C@@H]2N1 (relative stereo) [Table 5: N, H, H, cis-(CH2)4, H, H, 2-Imino-decahydro-cis-quinoxaline] | – | – | – | > 50 | IC50 [2]: ≤ 10 µM; IC50 [3]: > 50 µM
C[C@H]1CCC(=N)NC1 [Table 5: CH2, H, H, (S)CH3, H, H, H, 5(S)-Methyl-2-iminopiperidine hydrochloride] | – | – | – | – | IC50 [2]: ≤ 10 µM; IC50 [3]: ≤ 10 µM
O=C(O)C1CCC(=NC2NCCS2)N1 (centres unmarked) [Table 4: H, H, CO2H, H, 2-thiazolidinyl] | – | ≤ 50 | – | – | –
CC1CCN=C(N)C1 (centres unmarked) [Table 5: CH, H, CH3, H, H, H, H, 2-Imino-4-methylpiperidine hydrochloride] | – | – | – | – | IC50 [2]: ≤ 1 µM
N=C1CCCCN1 [Table 5: CH2, H, H, H, H, H, H, 2-Iminopiperidine hydrochloride] | – | – | – | – | IC50 [2]: ≤ 1 µM; IC50 [3]: ≤ 1 µM
C[C@@H]1CCC(=N)NC1 [Table 5: CH2, H, H, (R)CH3, H, H, H, 5(R)-Methyl-2-iminopiperidine hydrochloride] | – | – | – | – | IC50 [2]: ≤ 1 µM; IC50 [3]: ≤ 10 µM

The next lines start with results.

IC50 ([1]; Table 4, read-out: IC50 ncNOS) [µM] | IC50 ([2]; Table 4, read-out: IC50 iNOS) [µM] | IC50 ([3]; Table 4, read-out: IC50 ecNOS) [µM] | IC50 ([1]; Table 5, read-out: IC50 ncNOS) [µM] | SMILES | further results
– | – | – | ≤ 10 | NC1=Nc2ccccc2CC1 [Table 5: CH2, H, H, (CH)4, H, H, 3,4-Dihydro-2-aminoquinoline hydrochloride] | IC50 ([2]; Table 5, read-out: IC50 iNOS): ≤ 50 µM; IC50 ([3]; Table 5, read-out: IC50 ecNOS): > 50 µM
≤ 10 | ≤ 10 | ≤ 50 | – | CCCC1N=C(N)CC1C (centres unmarked) [Table 4: H, CH3, n-C3H7, H, H, 2-Imino-4-methyl-5-propylpyrrolidine hydrochloride] | –
– | – | – | > 50 | CC(=O)NC1CNC(=N)CC1C (mixture of isomers) [Table 5: CH, H, CH3, NHAc, H, H, H, cis/trans-5-Acetamido-2-imino-4-methyl-piperidine, acetic acid salt] | IC50 ([2]; Table 5, read-out: IC50 iNOS): ≤ 50 µM; IC50 ([3]; Table 5, read-out: IC50 ecNOS): > 50 µM
– | – | – | ≤ 10 | CC1C(=N)NCC2CCCC21 (stereo not drawn) [Table 5: CH, CH3, (CH2)3, H, H, H, 4-Imino-5-cis-methyl-3-azabicyclo[4.3.0]nonane, hydrochloride] | IC50 ([2]; Table 5, read-out: IC50 iNOS): ≤ 10 µM; IC50 ([3]; Table 5, read-out: IC50 ecNOS): > 50 µM
– | – | – | ≤ 50 | CC(=O)NCC1CNC(=N)CC1C (mixture of isomers) [Table 5: CH, H, CH3, CH2NHAc, H, H, H, cis/trans-5-Acetamidomethyl-2-imino-4-methyl-piperidine, acetic acid salt] | IC50 ([2]; Table 5, read-out: IC50 iNOS): ≤ 50 µM; IC50 ([3]; Table 5, read-out: IC50 ecNOS): > 50 µM
≤ 50 | ≤ 50 | > 50 | – | CCCC1CC(N)=NC1CC (centres unmarked) [Table 4: H, n-C3H7, C2H5, H, H, 2-Imino-5-ethyl-4-propylpyrrolidine hydrochloride] | –
≤ 1 | ≤ 1 | ≤ 1 | – | CC1CC(N)=NC1C (single isomer, unassigned) [Table 4: H, CH3, CH3(A), H, H] | –
– | – | – | ≤ 50 | CCC[C@@H]1C(=N)NCC[C@@H]1C (relative stereo) [Table 5: CH, n-C3H7, CH3, H, H, H, H, cis-2-Imino-4-methyl-3-n-propyl-piperidine, hydrochloride] | IC50 ([2]; Table 5, read-out: IC50 iNOS): ≤ 50 µM; IC50 ([3]; Table 5, read-out: IC50 ecNOS): > 50 µM
> 50 | ≤ 50 | > 50 | – | CCCC1CN=C(N)C1 (centres unmarked) [Table 4: H, n-C3H7, H, H, H, 2-Imino-4-propylpyrrolidine hydrochloride] | –
≤ 1 | ≤ 1 | ≤ 10 | – | CCC1CC(N)=NC1C (centres unmarked) [Table 4: H, C2H5, CH3, H, H, 2-Imino-4-ethyl-5-methylpyrrolidine hydrochloride] | –
< 1 | ≤ 1 | < 1 | – | CC1CC(N)=NC1C (centres unmarked) [Table 4: H, CH3, CH3, H, H, 2-Imino-4,5-dimethylpyrrolidine hydrochloride] | –
≤ 10 | ≤ 1 | > 50 | – | CCC1CN=C(N)C1C (centres unmarked) [Table 4: CH3, C2H5, H, H, H, 2-Imino-4-ethyl-3-methylpyrrolidine hydrochloride] | –
> 50 | > 50 | > 50 | – | CC(=O)OC[C@H]1CCC(=N)N1 [Table 4: H, H, (R)-CH2OAc, H, H, 2-Imino-5-(R)-acetyloxymethylpyrrolidine hydrochloride] | –
– | – | – | ≤ 1 | CC1CCCN=C1N (centres unmarked) [Table 5: CH2, CH3, H, H, H, H, H, 2-Imino-3-methylpiperidine hydrochloride] | IC50 [2]: ≤ 10 µM; IC50 [3]: ≤ 10 µM
≤ 50 | ≤ 10 | > 50 | – | CC(C)C1CN=C(N)C1 (centres unmarked) [Table 4: H, i-C3H7, H, H, H, 2-Imino-4-(2-methyl-ethyl)pyrrolidine hydrochloride] | –
– | – | – | > 50 | CCCC1CCN=C(N)C1 (centres unmarked) [Table 5: CH, H, n-C3H7, H, H, H, H, 2-Imino-4-propylpiperidine hydrochloride] | IC50 ([2]; Table 5, read-out: IC50 iNOS): ≤ 10 µM; IC50 ([3]; Table 5, read-out: IC50 ecNOS): > 50 µM
– | – | – | ≤ 10 | CC[C@@H]1C(=N)NCC[C@@H]1C (relative stereo) [Table 5: CH, C2H5, CH3, H, H, H, H, cis-3-Ethyl-2-imino-4-methyl-piperidine, hydrochloride] | IC50 ([2]; Table 5, read-out: IC50 iNOS): ≤ 50 µM; IC50 ([3]; Table 5, read-out: IC50 ecNOS): ≤ 50 µM
≤ 10 | ≤ 1 | ≤ 50 | – | CCC1CN=C(N)C1 (centres unmarked) [Table 4: H, C2H5, H, H, H, 2-Imino-4-ethylpyrrolidine hydrochloride] | –
≤ 1 | ≤ 1 | – | – | CC1CC(N)=NC1C (single isomer, unassigned) [Table 4: H, CH3, CH3(B), H, H] | –

From US5629322A, “Cyclic amidine analogs as inhibitors of nitric oxide synthase” (priority 1995, dated 1997)
